Assay [1] addresses T1, Recombinant BTK^WT kinase (Homo sapiens, UniProt Q06187).
T1 construct: purchased Invitrogen
Briefly: BTK WT binding affinity (LanthaScreen TR-FRET). As to conditions: Kinase Tracer 236, 5 h incubation. Put shortly: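 Tracer-displacement TR-FRET: 2.5 nM recombinant BTK^WT, 2 nM Eu anti-His antibody and 15 nM Kinase Tracer 236 incubated with varying inhibitor concentrations for 5 h in Kinase Buffer A. Signal read at 340 nm excitation, 615/665 nm emission; IC50 from variable-slope log[inhibitor]–response fit.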

The subject of assay [2] is OCI-Ly10 human DLBCL cells. Briefly: OCI-Ly10 anti-proliferative activity (Resazurin). Type of assay: cell-based. As to conditions: OCI-Ly10 cells, 72 h compound treatment, Resazurin, read-out: Proliferation Assay OCI-Ly10-20% FBS. Put shortly: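 OCI-Ly10 human DLBCL cells, whose growth depends on NFκB signalling, were seeded at 7.5×10^3 cells per well in 96-well plates with a range of compound concentrations and kept at 37° C for 72 h. Resazurin was then added, and after 5 h fluorescence was read at 590 nm.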
(The colour change of resazurin is a common sign of viable cells or microbes.)

Assay [3] deals with T2, Recombinant BTK^C481S kinase (Homo sapiens, UniProt Q06187, C481S).
T2 construct: purchased SignalChem
Briefly: BTK C481S binding affinity (LanthaScreen TR-FRET). The conditions noted are these: Kinase Tracer 236, 5 h incubation. Put shortly: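 BTK C481S tracer-displacement TR-FRET: 5 nM His-tagged kinase, 2 nM Eu anti-His antibody and 30 nM Kinase Tracer 236 incubated with titrated inhibitor for 5 h in Kinase Buffer A. Read at 340 nm excitation, 615/665 nm emission; IC50 from variable-slope log[inhibitor]–response fit.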
In general terms: Time-resolved FRET reads energy transfer from a long-lived donor to a nearby acceptor.

The target of another assay is T3, Recombinant EGFR (Homo sapiens, UniProt P00533).
T3 construct: purchased Invitrogen
The assay is described as follows: EGFR binding affinity (LanthaScreen TR-FRET). As to conditions: Kinase Tracer 199, 5 h incubation. Put shortly: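 TR-FRET binding (LanthaScreen) with recombinant EGFR; signal measured across a compound concentration range. IC50 obtained by fitting RFU against log[inhibitor] to a variable-slope model.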

This is an account of results in patent publication US11826351B2, “Compounds useful as kinase inhibitors” (Loxo Oncology, Inc., priority 2015, dated 2023).

Where two headings read alike, the source gives them in different places.

T1 sequence (Q06187 whole entry): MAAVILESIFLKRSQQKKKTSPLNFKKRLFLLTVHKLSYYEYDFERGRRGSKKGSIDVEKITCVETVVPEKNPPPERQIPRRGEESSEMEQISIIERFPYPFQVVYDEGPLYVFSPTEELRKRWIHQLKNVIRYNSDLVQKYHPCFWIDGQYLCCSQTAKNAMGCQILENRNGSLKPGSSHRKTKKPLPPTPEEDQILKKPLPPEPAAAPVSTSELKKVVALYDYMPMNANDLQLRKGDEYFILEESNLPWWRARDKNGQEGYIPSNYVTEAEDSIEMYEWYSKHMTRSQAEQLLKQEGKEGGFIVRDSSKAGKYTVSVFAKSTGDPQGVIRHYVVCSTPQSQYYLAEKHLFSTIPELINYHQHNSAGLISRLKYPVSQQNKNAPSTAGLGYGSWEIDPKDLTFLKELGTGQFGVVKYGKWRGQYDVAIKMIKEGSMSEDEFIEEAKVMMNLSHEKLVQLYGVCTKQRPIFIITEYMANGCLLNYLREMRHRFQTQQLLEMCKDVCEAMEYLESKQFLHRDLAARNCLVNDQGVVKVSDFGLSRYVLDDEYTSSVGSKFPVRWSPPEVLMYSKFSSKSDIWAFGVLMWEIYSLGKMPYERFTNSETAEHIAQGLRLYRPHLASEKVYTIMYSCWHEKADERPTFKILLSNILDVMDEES
T2 sequence (Q06187 whole entry C481S): as the sequence (Q06187 whole entry) above, with C481S counted along it
T3 sequence (P00533 25-1210): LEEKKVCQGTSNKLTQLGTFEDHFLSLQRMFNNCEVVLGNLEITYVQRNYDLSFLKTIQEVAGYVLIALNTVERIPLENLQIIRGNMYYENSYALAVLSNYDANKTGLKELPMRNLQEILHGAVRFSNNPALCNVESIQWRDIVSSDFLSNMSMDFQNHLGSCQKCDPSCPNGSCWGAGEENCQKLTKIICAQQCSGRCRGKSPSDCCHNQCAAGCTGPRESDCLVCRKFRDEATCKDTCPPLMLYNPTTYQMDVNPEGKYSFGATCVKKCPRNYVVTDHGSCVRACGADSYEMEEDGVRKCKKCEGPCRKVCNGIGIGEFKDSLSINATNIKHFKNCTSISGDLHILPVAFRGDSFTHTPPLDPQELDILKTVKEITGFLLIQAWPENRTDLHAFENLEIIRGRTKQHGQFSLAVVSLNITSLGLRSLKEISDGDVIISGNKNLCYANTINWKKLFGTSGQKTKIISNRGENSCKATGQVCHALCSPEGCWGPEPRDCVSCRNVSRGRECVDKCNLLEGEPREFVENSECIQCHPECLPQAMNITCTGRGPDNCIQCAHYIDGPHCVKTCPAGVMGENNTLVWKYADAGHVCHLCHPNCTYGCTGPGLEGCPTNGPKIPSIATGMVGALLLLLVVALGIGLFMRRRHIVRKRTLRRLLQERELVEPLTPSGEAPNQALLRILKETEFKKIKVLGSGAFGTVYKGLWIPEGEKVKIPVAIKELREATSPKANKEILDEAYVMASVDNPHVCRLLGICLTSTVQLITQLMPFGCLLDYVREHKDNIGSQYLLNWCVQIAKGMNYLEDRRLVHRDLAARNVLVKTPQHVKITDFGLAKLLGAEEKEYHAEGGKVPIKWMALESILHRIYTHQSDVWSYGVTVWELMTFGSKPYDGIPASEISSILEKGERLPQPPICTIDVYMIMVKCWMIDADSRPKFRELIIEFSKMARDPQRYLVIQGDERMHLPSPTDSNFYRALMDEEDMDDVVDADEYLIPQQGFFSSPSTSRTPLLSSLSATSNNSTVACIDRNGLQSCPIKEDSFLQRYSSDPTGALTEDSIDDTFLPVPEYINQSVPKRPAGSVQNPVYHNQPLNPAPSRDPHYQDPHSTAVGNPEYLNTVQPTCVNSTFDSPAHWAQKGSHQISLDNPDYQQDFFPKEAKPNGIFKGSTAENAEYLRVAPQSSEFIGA

As to `COc1ccccc1C(=O)NCc1ccc(-c2nn(-c3ccccc3)c(N)c2C(N)=O)cc1` [Example 22, 5-Amino-3-[4-[[(2-methoxybenzoyl)amino]methyl]phenyl]-1-phenyl-pyrazole-4-carboxamide], the IC50 in assay [1] was < 10 nM; in assay [2] (Homo sapiens, OCI-Ly10, 72 h), 10 to 100 nM; in assay [3], < 10 nM; on Recombinant EGFR it was 1000 to 10000 nM.

For `COc1ccccc1C(=O)NCc1ccc(-c2nn(C3CCC(C(=O)N(C)C)CC3)c(N)c2C(N)=O)cc1` (single isomer, unassigned) [Example 57b, 5-amino-1-[4-(dimethylcarbamoyl)cyclohexyl]-3-[4-[[(2-methoxybenzoyl)amino]methyl]phenyl]pyrazole-4-carboxamide], the IC50 in assay [1] is < 10 nM; in assay [2], 100 to 1000 nM; in assay [3], < 10 nM; at Recombinant EGFR it was 100 to 1000 nM.

Regarding `COc1ccccc1C(=O)NCc1ccc(-c2nn(C(CO)CCl)c(N)c2C(N)=O)cc1` (stereo not drawn) [Example 66, 5-amino-1-[1-(chloromethyl)-2-hydroxy-ethyl]-3-[4-[[(2-methoxybenzoyl)amino]methyl]phenyl]pyrazole-4-carboxamide], the IC50 in assay [1] is 10 to 100 nM; in assay [2] (Homo sapiens, OCI-Ly10, 72 h), 1000 to 10000 nM; in assay [3], < 10 nM; at Recombinant EGFR, 1000 to 10000 nM.

On to `COc1ccc(F)cc1C(=O)NCc1ccc(-c2nn(C(c3ccccc3)C(F)(F)F)c(N)c2C(N)=O)cc1` (stereo not drawn) [Example 178, 5-Amino-3-[4-[[(5-fluoro-2-methoxy-benzoyl)amino]methyl]phenyl]-1-(2,2,2-trifluoro-1-phenyl-ethyl)pyrazole-4-carboxamide], for which the IC50 was 10 to 100 nM in assay [1]; 10 to 100 nM in assay [2] (Homo sapiens, OCI-Ly10, 72 h); < 10 nM in assay [3]; 1000 to 10000 nM on Recombinant EGFR.

With `COc1ccccc1C(=O)NCc1ccc(-c2nn(C3CCC(F)(F)CC3)c(N)c2C(N)=O)cc1` [Example 68, 5-amino-1-(4,4-difluorocyclohexyl)-3-[4-[[(2-methoxybenzoyl)amino]methyl]phenyl]pyrazole-4-carboxamide], the IC50 in assay [1] is < 10 nM; in assay [2] (Homo sapiens, OCI-Ly10, 72 h), 10 to 100 nM; in assay [3], < 10 nM; on Recombinant EGFR it was 100 to 1000 nM.

As to `COc1ccccc1C(=O)NCc1ccc(-c2nn([C@@H]3CCc4ccccc43)c(N)c2C(N)=O)cc1` [Example 23, 5-Amino-1-[(1R)-indan-1-yl]-3-[4-[[(2-methoxybenzoyl)amino]methyl]phenyl]pyrazole-4-carboxamide], the IC50 in assay [1] was < 10 nM; in assay [2] (Homo sapiens, OCI-Ly10, 72 h), 10 to 100 nM; in assay [3], < 10 nM; at Recombinant EGFR, 100 to 1000 nM.

For the compound `COc1ccccc1C(=O)NCc1ccc(-c2nn(C3CCOC3C)c(N)c2C(N)=O)cc1` (single isomer, unassigned) [Example 84, 5-amino-3-[4-[[(2-methoxybenzoyl)amino]methyl]phenyl]-1-[2-methyltetrahydrofuran-3-yl]pyrazole-4-carboxamide], the IC50 is 10 to 100 nM in assay [1], 1000 to 10000 nM in assay [2], < 10 nM in assay [3] and 1000 to 10000 nM on Recombinant EGFR.

Consider `COc1ccc(F)cc1C(=O)NCc1ccc(-c2nn(C(C)C(F)F)c(N)c2C(N)=O)cc1` (stereo not drawn) [Example 173, 5-amino-1-(2,2-difluoro-1-methyl-ethyl)-3-[4-[[(5-fluoro-2-methoxy-benzoyl)amino]methyl]phenyl]pyrazole-4-carboxamide], for which the IC50 in assay [1] was < 10 nM; in assay [2] (Homo sapiens, OCI-Ly10, 72 h), 10 to 100 nM; in assay [3], < 10 nM; on Recombinant EGFR, 1000 to 10000 nM.

`COc1ccccc1C(=O)NCc1ccc(-c2nn(CCc3nnn[nH]3)c(N)c2C(N)=O)cc1` [Example 25, 5-Amino-3-[4-[[(2-methoxybenzoyl)amino]methyl]phenyl]-1-[2-(1H-tetrazol-5-yl)ethyl]pyrazole-4-carboxamide]: the IC50 in assay [1] is 10 to 100 nM; in assay [2] (Homo sapiens, OCI-Ly10, 72 h), > 10000 nM; in assay [3], < 10 nM; at Recombinant EGFR it was 1000 to 10000 nM.

Take `COc1ccc(F)cc1C(=O)NCc1ccc(-c2nn(C(C)C3CCOCC3)c(N)c2C(N)=O)cc1` (stereo not drawn) [Example 161, 5-amino-3-[4-[[(5-fluoro-2-methoxy-benzoyl)amino]methyl]phenyl]-1-(1-tetrahydropyran-4-ylethyl)pyrazole-4-carboxamide]: the IC50 in assay [1] is 10 to 100 nM; in assay [2] (Homo sapiens, OCI-Ly10, 72 h), 100 to 1000 nM; in assay [3], < 10 nM; at Recombinant EGFR, > 10000 nM.

In the case of `COc1ccccc1C(=O)NCc1ccc(-c2nn(C)c(N)c2C(N)=O)cc1` [Example 30, 5-Amino-3-[4-[[(2-methoxybenzoyl)amino]methyl]phenyl]-1-methyl-pyrazole-4-carboxamide], the IC50 in assay [1] is 10 to 100 nM; in assay [2] (Homo sapiens, OCI-Ly10, 72 h) it was 100 to 1000 nM; in assay [3] it was 10 to 100 nM; on Recombinant EGFR it was > 10000 nM.

Turning to `COc1ccccc1C(=O)NCc1ccc(-c2nn(C3CCCC3)c(N)c2C(N)=O)cn1` [Example 134, 5-amino-1-cyclopentyl-3-[6-[[(2-methoxybenzoyl)amino]methyl]-3-pyridyl]pyrazole-4-carboxamide], the IC50 is 10 to 100 nM in assay [1]; 1000 to 10000 nM in assay [2] (Homo sapiens, OCI-Ly10, 72 h); 10 to 100 nM in assay [3]; > 10000 nM on Recombinant EGFR.

In the case of `COc1ccccc1C(=O)NCc1ccc(-c2nn(-c3ccc(F)cc3F)c(N)c2C(N)=O)cc1` [Example 15, 5-Amino-1-(2,4-difluorophenyl)-3-[4-[[(2-methoxybenzoyl)amino]methyl]phenyl]pyrazole-4-carboxamide], the IC50 was < 10 nM in assay [1]; 10 to 100 nM in assay [2] (Homo sapiens, OCI-Ly10, 72 h); < 10 nM in assay [3]; 1000 to 10000 nM at Recombinant EGFR.

For `COc1ccc(F)cc1C(=O)NCc1ccc(-c2nn(C3CN(C(C)C)CC3(F)F)c(N)c2C(N)=O)cc1` (stereo not drawn) [Example 197, 5-amino-1-(4,4-difluoro-1-isopropyl-pyrrolidin-3-yl)-3-[4-[[(5-fluoro-2-methoxy-benzoyl)amino]methyl]phenyl]pyrazole-4-carboxamide], the IC50 in assay [1] was < 10 nM; in assay [2] (Homo sapiens, OCI-Ly10, 72 h) it was 10 to 100 nM; in assay [3] it was < 10 nM; on Recombinant EGFR it was 1000 to 10000 nM.

Take `COc1ccccc1C(=O)NCc1ccc(-c2nn(C3CCCOC3)c(N)c2C(N)=O)c(F)c1F` (stereo not drawn) [Example 157, 5-amino-3-[2,3-difluoro-4-[[(2-methoxybenzoyl)amino]methyl]phenyl]-1-tetrahydropyran-3-yl-pyrazole-4-carboxamide]: the IC50 in assay [1] was < 10 nM; in assay [2] (Homo sapiens, OCI-Ly10, 72 h), 10 to 100 nM; in assay [3] it was < 10 nM; on Recombinant EGFR, > 10000 nM.

On to `COc1ccccc1C(=O)NCc1ccc(-c2nn(C3CCOCC3)c(N)c2C(N)=O)cc1F` [Example 116, 5-amino-3-[3-fluoro-4-[[(2-methoxybenzoyl)amino]methyl]phenyl]-1-tetrahydropyran-4-yl-pyrazole-4-carboxamide], for which the IC50 was 10 to 100 nM in assay [1]; 100 to 1000 nM in assay [2] (Homo sapiens, OCI-Ly10, 72 h); < 10 nM in assay [3]; 1000 to 10000 nM at Recombinant EGFR.

For the compound `COc1ccc(F)cc1C(=O)NCc1ccc(-c2nn(C3CCCOC3)c(N)c2C(N)=O)c(F)c1` (stereo not drawn) [Example 107, 5-amino-3-[2-fluoro-4-[[(5-fluoro-2-methoxy-benzoyl)amino]methyl]phenyl]-1-tetrahydropyran-3-yl-pyrazole-4-carboxamide], the IC50 in assay [1] was < 10 nM; in assay [2] (Homo sapiens, OCI-Ly10, 72 h), 10 to 100 nM; in assay [3], < 10 nM; at Recombinant EGFR, > 10000 nM.

Turning to `COc1ccc(F)cc1C(=O)NCc1ccc(-c2nn(CC(F)(F)F)c(N)c2C(N)=O)cc1F` [Example 128, 5-amino-3-[3-fluoro-4-[[(5-fluoro-2-methoxy-benzoyl)amino]methyl]phenyl]-1-(2,2,2-trifluoroethyl)pyrazole-4-carboxamide], the IC50 in assay [1] is < 10 nM; in assay [2] (Homo sapiens, OCI-Ly10, 72 h) it was 10 to 100 nM; in assay [3], < 10 nM; on Recombinant EGFR it was 1000 to 10000 nM.

With `COc1ccccc1C(=O)NCc1ccc(-c2nn(C3CNCC3(F)F)c(N)c2C(N)=O)cc1` (stereo not drawn) [Example 144, 5-amino-1-(4,4-difluoropyrrolidin-3-yl)-3-[4-[[(2-methoxybenzoyl)amino]methyl]phenyl]pyrazole-4-carboxamide], the IC50 in assay [1] is < 10 nM; in assay [2] (Homo sapiens, OCI-Ly10, 72 h) it was 100 to 1000 nM; in assay [3] it was < 10 nM; on Recombinant EGFR it was 100 to 1000 nM.

In the case of `COc1ccc(F)cc1C(=O)NCc1ccc(-c2nn(C3CCCC3)c(N)c2C(N)=O)c(F)c1` [Example 136, 5-amino-1-cyclopentyl-3-[2-fluoro-4-[[(5-fluoro-2-methoxy-benzoyl)amino]methyl]phenyl]pyrazole-4-carboxamide], the IC50 in assay [1] is < 10 nM; in assay [2] (Homo sapiens, OCI-Ly10, 72 h), 10 to 100 nM; in assay [3], < 10 nM; on Recombinant EGFR it was 1000 to 10000 nM.

For `COc1ccccc1C(=O)NCc1ccc(-c2nn(CCC#N)c(N)c2C(N)=O)cc1` [Example 11, 5-Amino-1-(2-cyanoethyl)-3-[4-[[(2-methoxybenzoyl)amino]methyl]phenyl]pyrazole-4-carboxamide], the IC50 fell in the range of 10 to 100 nM in assay [1]; 1000 to 10000 nM in assay [2] (Homo sapiens, OCI-Ly10, 72 h); 10 to 100 nM in assay [3]; 1000 to 10000 nM at Recombinant EGFR.
